Patent US6517856B1, “Insecticide resistance assay” (priority 1998, dated 2003)

Legend:
H. virescens = experiment: Effect of Trypan Blue in diet on rate of feces production, third instars; format: in vivo, Heliothis virescens; conditions: no Bt, confidence interval in brackets
Protocol: The blue diet used in the feeding disruption bioassay is an agar based insect meal containing 20 mg of Trypan Blue (Direct Blue 14; Matheson Coleman & Bell, Norwood, Ohio) per 100 ml of standard artificial diet, and containing different concentrations of CryIAc (MVP, Mycogen). Larvae feeding on this colored diet produced blue feces which were easily distinguished by observation from feces derived from other food sources. Assays were conducted in 1-ounce clear plastic cups (Solo Cup Company, Urbana, Ill.; approximately […] in diameter and ¾ inches high) fitted with white cardboard tops, which are routinely used for insect rearing in the inventors' laboratories. The clear plastic allowed for the observation of blue feces without opening the container.
The rate of feces production was examined for third instars of both the Wake (Bt susceptible) and YHD2 (Bt resistant) strains of H. virescens, to examine the effects of adding Trypan Blue to the standard artificial diet (the “Blue diet”). Wake budworms produced 30.6 ([…], 27.6-33.6) fecal pellets/hour/15 larvae on regular diet, and 25.5 (22.5-28.5) fecal pellets/hour/15 larvae on Trypan Blue diet. This difference, although small, was statistically significant as indicated by a significant diet×time interaction (F=6.05; df=1,24; P=0.0215) (PROC GLM procedure, SAS 1991). (Data not shown). […]

[1] = Octanol-water partition coefficient (Kow); format: physicochemical; conditions: method of Leo et al. (1971), mean of 3 replicates
tobacco budworm neonates = experiment: Larval feeding disruption assay for spinosad resistance; format: in vivo, Heliothis virescens; conditions: 1.6 μg active ingredient per ml diet, 24 h
Protocol: The Bt feeding disruption assay described above was modified to monitor spinosad resistance in tobacco budworms. Trypan Blue (Direct Blue 14, Matheson Coleman and Bell, Norwood, Ohio) was blended into artificial diet (described above) at the rate of 20 mg of dye per 100 ml diet. This diet also was formulated with 1.6 μg of spinosad active ingredient per ml diet. The spinosad was added to the diet as part of a 44.2% aqueous formulation provided to us by Dr. Clyde Sorenson (NC State University, Raleigh, N.C.). […] The blue indicator diet with spinosad was dispensed at the rate of 100 μl per well into 8-well microtitre plate strips (Nalge Nunc Int., Napersville, Ill.). The wells were sealed with strip caps (Nunc). In order to reduce condensation within the wells, caps were punctured twice with a #3 insect pin.
Hv Franklin (spinosad susceptible) and spinosad resistant (selected) neonates of the tobacco budworm were used in all assays and were added to the assay diet within 24 h of hatch. Hv Franklin has been previously shown to be representative of other field collected H. virescens strains in spinosad toxicity. Selection of our laboratory colony of tobacco budworms which were originally collected from various locations in North Carolina, with technical spinosad applied topically each generation, produced insects that were highly resistant to spinosad.
Bioassays were conducted at 27±1° C. with a 14:10 L:D cycle, and the number of blue fecal pellets produced were counted after a 24 h exposure of the neonates to the diet. Results were taken from two replicates consisting of 24 insects per replicate.

[2] = Hv spinosad selected (resistant) neonates

Compound: Cc1cc(-c2ccc(/N=N/c3c(S(=O)(=O)O)cc4cc(S(=O)(=O)O)cc(N)c4c3O)c(C)c2)ccc1/N=N/c1c(S(=O)(=O)O)cc2cc(S(=O)(=O)O)cc(N)c2c1O [Trypan Blue]
- rate of fecal pellet production on Trypan Blue diet (H. virescens; Wake third instars): 25.5 (22.5-28.5) fecal pellets/hour/15 larvae
- rate of fecal pellet production on Trypan Blue diet (H. virescens; YHD2 third instars): 34.9 (32.5-37.3) fecal pellets per hour per 15 larvae

Compound: CC(C)CCC[C@@H](C)[C@H]1CC[C@H]2[C@@H]3CC=C4C[C@@H](O)CC[C@]4(C)[C@H]3CC[C@]12C [cholesterol]
- Octanol-water coefficient (Kow) [1]: 0.46

Compound: COC(=O)/C=C(\C)CC/C=C(\C)CC[C@H]1OC1(C)C [juvenile hormone III]
- Octanol-water coefficient (Kow) [1]: 165.33

Compound: spinosad
- percentage producing 3-5 pellets (tobacco budworm neonates; [2]): 2.3%
- percentage producing >2 fecal pellets (tobacco budworm neonates; [2]): 100%
- percentage producing 0-2 fecal pellets (tobacco budworm neonates; susceptible Hv Franklin neonates): 100%
